Assays:
[1] = tested on: rhIL-17A stimulated G-CSF production in normal human keratinocytes (NHK); test: NHK G-CSF assay with rhIL-17A stimulation; type: cell-based; settings: for inhibition of IL-17 stimulated G-CSF production: concentrations tested, FIGS. 2A and 2C; for dose dependent G-CSF levels: various doses, FIG. 3
[2] = tested on: TNFa secretion by LPS stimulated hPBMCs; settings: Wadsworth et al. 1999, read-out: IC50 (Literature), inhibition of TNFa secretion; cited from earlier work
[3] = tested on: IL-β secretion by LPS stimulated hPBMCs; settings: Wadsworth et al. 1999, read-out: IC50 (Literature), inhibition of IL-β secretion; cited from earlier work
[4] = tested on: IL-17A-stimulated gene panel in NHKs; test: QuantiGene Plex gene panel expression, NHK stimulated with recombinant IL-17A; type: cell-based, human; settings: NHKs stimulated with recombinant IL-17A, FIGS. 5A and 5B
Experimental: (§1) A panel of IL-17A-stimulated genes was identified, initially through microarray experiments and later confirmed by RT-PCR, to assess modulators of the IL-17 pathway as shown in Table 2. Expression levels of the genes in the panel were measured using QuantiGene® Plex Gene Expression assay in human keratinocytes treated with human recombinant IL-17A and compounds as described in Example 1.
After the 24 hour incubation with IL-17A with and without compounds, 50 μl Lysis buffer (QuantiGene, ThermoFisher) was added to each well containing 100 μl cells. The plate was covered and incubated for 30 minutes in a VorTemp set at 50-55° C., 170 rpm to lyse the cells. The plate was then kept frozen at −80° C. On the day of QuantiGene experiments, samples and reagents were prepared and assay was conducted according the manufacturer's protocol (QuantiGene, ThermoFisher). At the final step, the sample plate was read on a Luminex MagPix® instrument (Luminex; Austin, Tex.) for fluorescent intensity signals.
The raw expression value of a given gene (g) in a sample (S) was quantified as the median of raw fluorescent intensity of the corresponding probe. Normalization factor of each sample S was determined by the raw expression of four housekeeping genes, ACTB, GAPDH, HPRT1, and PPIB, as the ratio of the geometric mean (geomean) of the four housekeeping genes in sample S vs. the geomean of the four housekeeping genes among all samples. The normalized expression value of each gene in sample S was further quantified as the raw expression value divided by the normalization factor in sample S.
Changes in expression of gene g in keratinocytes in response to IL-17A stimulation was calculated as the ratio of the geomean of its normalized expression values in IL-17A stimulated samples vs. that in unstimulated samples. For each gene g, the relative expression value in sample S (Rel_Exp_S) was further determined by its normalized expression in sample S (Norm_Exp_S) and the geomeans of its normalized expression in IL-17A stimulated samples (GM_Norm_Exp_Stim) and unstimulated samples (GMNorm_Exp_UnStim), using formula as: Rel_Exp_S=(Norm_Exp_S−GM_Norm_Exp_UnStim)/(GM_Norm_Exp_Stim−GM_Norm_Exp_UnStim).

[5] = tested on: normal human keratinocytes (NHK); test: CellTiter-Glo Luminescent Cell Viability Assay of NHK cells; type: cell-based; settings: FIG. 2B
Experimental: To test whether treatment with IL-17 or compounds affected cell viability, cells were tested with CellTiter-Glo® Luminescent Cell Viability Assay (Promega; Madison, Wis.) according to manufacturer's protocol.
The substrate vial and the buffer solution were equilibrated at room temperature before reconstitution. The lyophilized substrate solution was reconstituted by adding the appropriate volume of buffer to the substrate vial. After brief mixing, equal volumes of the reconstituted reagent were added to the volume of media in each well of the plate containing cells. The plate was shaken briefly to mix and incubated at room temperature for 10 minutes then luminescent signal was read using an Envision plate reader.
Percent cell viability was calculated as:
% viability=((Sample RLU/No stimulation Avg,RLU)*100).

[6] = tested on: Th17 conditioned media stimulated G-CSF production in normal human keratinocytes (NHK); test: NHK G-CSF assay with Th17 conditioned media stimulation; type: cell-based; settings: for inhibition of G-CSF production: NHK, Th17 conditioned media, FIG. 4A; for IC50: Th17 conditioned media stimulated NHK (footnote 15)
Experimental: In order to test potential modulators of the IL-17 pathway, normal human keratinocytes (NHK) were incubated with either recombinant IL-17A or Th17 conditioned media and potential inhibitor compounds, and then levels of granulocyte colony-stimulating factor (G-CSF) in the cell supernatant were measured as described in detail below.
Peripheral blood mononuclear cells (PBMCs) were isolated from human whole blood using Ficoll-Paque density gradient centrifugation (Ficoll-Paque, GE, 17-1440-03) using SepMate tubes (StemCell technologies, 85450). […] CD4+ T cells were isolated through manual magnetic labeling and cell separation (LS column, Miltenyi Biotec, 130-042-401) following vendor protocol (Miltenyi Biotec, 130 533). CD4+ T cells were seeded on 24-well plates at 2×10^6 cells/mL in 500 μL of RPMI Media (RPMI 1640, Hyclone, SH30096.01) supplemented with 10% FBS, penicillin-streptomycin (Sigma, P0781-100 ml), L-glutamine (Sigma, G7513-100ML), and 2-Mercaptoethanol (Gibco, 21985-023). Th17 polarization media was prepared in RPMI media and 250 μL was added to each well at a final concentration of: anti-CD3/anti-CD28 beads, prepared using T cell activation/expansion kit (Miltenyi Biotec, 130-091-441), at 2× cell number per well, anti-human interleukin-4 (IL-4) [10 ug/mL], anti-human interferon gamma (IFNγ) [10 ug/mL] antibodies (ThermoFisher, 16-7048-85, 16-7318-85), human IL-2 [60 U/mL] (Pepro Tech, 200-02), human IL-1β [10 ng/mL], human IL-23 [10 ng/mL], human IL-6 [50 ng/mL], and human TGFβ [12 ng/mL] (R&D Systems, 201-LB-010, 1290-IL-010, 206-IL-010, 240-B-010). […] The level of human IL-17A in Th17 conditioned media was determined using DuoSet ELISA kits following the vendor protocol (R&D Systems, DY317-05, DY5194-05, DY1335B-05). Human IL-17A was detected in Th17 conditioned media, while unstimulated, undifferentiated CD4+ T cells had no detectable level of IL-17A in the supernatant (FIG. 1). […]
After overnight culture, cell supernatant was carefully collected for G-CSF detection, and cells were further analyzed for viability or gene expression
G-CSF levels were measured using the Human G-CSF Homogeneous Time Resolved Fluorescence (HTRF) Assay kit (Cisbio, Cat. No. 63ADK055PEB1; Codolet, France) according to the manufacturer's protocol. G-CSF is detected in a sandwich assay format using different specific antibodies, one labeled with Eu3+-Cryptate (donor) and the second with d2 (acceptor). When the dyes are in close proximity, the excitation of the donor with a light source (laser or flash lamp) triggers a Fluorescence Resonance Energy Transfer (FRET) towards the acceptor, which in turn fluoresces at a specific wavelength (665 nm). […]

[7] = tested on: Th17 conditioned media stimulated gene panel in NHKs; test: QuantiGene Plex gene panel expression, NHK stimulated with Th17 conditioned media; type: cell-based, human; settings: FIG. 6
Experimental: Peripheral blood mononuclear cells (PBMCs) were isolated from human whole blood using Ficoll-Paque density gradient centrifugation (Ficoll-Paque, GE, 17-1440-03) using SepMate tubes (StemCell technologies, 85450). […] CD4+ T cells were isolated through manual magnetic labeling and cell separation (LS column, Miltenyi Biotec, 130-042-401) following vendor protocol (Miltenyi Biotec, 130 533). CD4+ T cells were seeded on 24-well plates at 2×10^6 cells/mL in 500 μL of RPMI Media (RPMI 1640, Hyclone, SH30096.01) supplemented with 10% FBS, penicillin-streptomycin (Sigma, P0781-100 ml), L-glutamine (Sigma, G7513-100ML), and 2-Mercaptoethanol (Gibco, 21985-023). […] The level of human IL-17A in Th17 conditioned media was determined using DuoSet ELISA kits following the vendor protocol (R&D Systems, DY317-05, DY5194-05, DY1335B-05). Human IL-17A was detected in Th17 conditioned media, while unstimulated, undifferentiated CD4+ T cells had no detectable level of IL-17A in the supernatant (FIG. 1).
as §1, with “1. […]” for “1.”

[8] = Homo sapiens, Keratinocyte, rhIL-17A stimulated NHK assay (footnote 14), 5 ng/ml rhIL-17A
[9] = rhIL-17A stimulated NHK assay (footnote 14), 5 ng/ml rhIL-17A

Molecule | IC50 [1, 8] | inhibition of IL-17 stimulated G-CSF production ([1]; NHK, rhIL-17A) | dose dependent G-CSF levels ([1]; NHK, rhIL-17A) | expression of the gene panel [4] | inhibition of G-CSF production [6] | IC50 [6] | expression of the gene panel [7] | IC50 [1, 9] | further results
Cc1nonc1C(=O)N[C@H](c1cn2ncc([C@H](NC(=O)CCC(F)(F)F)C3CC3)cc2n1)C1CCC(F)(F)CC1 (stereo in doubt) [IL-17Ai-3] | 72.8 nM | – | – | – | – | – | – | – | –
O=C(CCC(F)(F)F)N[C@@H](c1ccn2cc([C@@H](NC(=O)c3conc3CCC(F)(F)F)C3CCC(F)(F)CC3)nc2n1)C1CC1 [IL-17Ai-5] | 86.2 nM | – | – | – | – | – | – | – | –
OCCC#Cc1nc(-c2ccc(F)cc2)c(-c2ccncc2)n1CCCc1ccccc1 [Modulator P38i, RWJ 67657] | – | did not inhibit | does not inhibit G-CSF levels | did not lead to an overall reduction in expression of the gene panel | – | – | – | – | IC50 [2]: 3 nM; IC50 [3]: 11 nM
Cc1nc(Nc2n[nH]c3c2CN(C(=O)N[C@H](CN(C)C)c2ccccc2)C3(C)C)c2sccc2n1 [PAKi, PF-3758309] | – | did not inhibit | some dose-dependent inhibition of G-CSF production with much lower potency compared to IL-17A inhibitors | did not lead to an overall reduction in expression of the gene panel | – | – | – | – | cell toxicity ([5]; highest dose of 20 μM): toxic to the cells; cell toxicity ([5]; tested concentrations other than 20 μM PAK inhibitor): well tolerated; IC50 ([1]; Homo sapiens, Keratinocyte): 2270 nM; G-CSF production ([1]; NHK, rhIL-17A, highest dose of 20 μM): reduced G-CSF production
Brodalumab | – | inhibited G-CSF production at all concentrations tested | – | inhibited expression of the gene panel in a dose-dependent manner | inhibited G-CSF production | 0.082 nM | inhibited expression of the gene panel in a dose-dependent manner | 0.07 nM | –
Secukinumab | – | inhibited G-CSF production at all concentrations tested | – | inhibited expression of the gene panel in a dose-dependent manner | inhibited G-CSF production | 0.2 nM | inhibited expression of the gene panel in a dose-dependent manner | 0.2 nM | –
